Test results: paper PMC8904451, “Novel chalcone-derived pyrazoles as potential therapeutic agents for the treatment of non-small cell lung cancer” (Scientific Reports, 2022)
Like-named read-outs stand apart in the source and are kept apart here.

Experiments:
Assay type in all cases: cell-based, human
[1] = test system: A-549, H226, and H460 cells; assay: Cell cycle distribution by flow cytometry, unsynchronized cells; conditions: IC90, 24 h, vs control
Protocol: Promising antiproliferative properties of PCH-1 led us to further investigate the effect of this compound on cell cycle distribution. Therefore, cell cycle progression was analyzed by quantifying DNA content using flow cytometry. […] To thoroughly analyze the course of the cycle, A-549 cells were synchronized with a double-thymidine block in the G1 phase and treated with IC90 concentration of PCH-1 for the indicated time. Slight alterations of the division cycle were visible after 2 h of incubation with the compound.
Cells were seeded onto tissue culture plates and allowed to attach for 24 h. Unsynchronized cells were treated with PCH-1 or Etoposide at IC90 concentration for 24 and 48 h, while synchronized cells were treated with PCH-1 or Etoposide at IC90 concentration for 2, 4, 6, 8, and 10 h. Synchronization of the cells was performed as described previously by Chen et al.[77]. Next, the cells were trypsinized, fixed in ice-cold 75% ethanol, and stored overnight at − 20 °C. After centrifugation, the cells were rinsed with PBS and stained with […] PI (Sigma-Aldrich) and […] RNaseA (Thermo Fisher) in PBS for 30 min at RT. The distribution of the cells in different phases of the cell cycle was determined by flow cytometry (Guava EasyCyte 8 cell sorter, Merck Millipore) and FlowJo software v10. Each experiment was repeated independently three times.

[2] = test system: A-549 cells; assay: Western blot of apoptotic and EMT-related proteins
Protocol: To investigate the potential molecular mechanisms responsible for PCH-1-induced apoptosis in A-549 cells, we measured the expression of apoptosis-related proteins by western blot analysis. […] Next, we determined the role of the antiapoptotic protein Bcl-2 as well as the proapoptotic proteins Bax and Bid in PCH-1-induced cell death in A-549 cells. […] Additionally, we observed Bid cleavage (48 h: *p < 0.01), which was noted as a reduction in full-length Bid protein.
Epithelial-mesenchymal transition (EMT) plays a crucial role in tumorigenesis by promoting cell motility, migration, and metastasis. Thus, we examined the expression of proteins involved in the EMT process by western blot assays. […] The activity of N-cadherin in A-549 cells was reduced by 45% at 24 h (p = 0.0002) and by 50% at 48 h (p = 0.0002), while vimentin activity was reduced by 43% at 24 h (p = 0.005) and by 46% at 48 h (p = 0.004). Additional PCH-1 inhibited Transforming Growth Factor β1 (TGF-β1) induced mesenchymal-like phenotype in A-549 cells, indicating […] of N-cadherin by 66% at 48 h (p = 0.0003), and another EMT effector β-catenin, which was suppressed by 31% at 24 h (p = 0.0275) and by 66% at 48 h (p = 0.0019).
Cells (1.5 × 10^6) were cultured in tissue culture plates for overnight attachment. The cells were then incubated with IC90 of PCH-1 or 1% DMSO for 6, 24, and 48 h, or were co-treatment with 2.5 ng/ml TGF-β1 (Sigma-Aldrich), and IC90 of PCH-1 or 1% DMSO for 24, and 48 h. Subsequently, the cells were collected and lysed in Laemmli buffer with a protease inhibitor cocktail (Roche) and phosphatase inhibitors [NaF (5 mM), β-glycerophosphate (5 mM), and Na3VO4 (1 mM)]. The cells were then sonicated in triplicate (10 s, 30% amplitude) and centrifuged at 16,000×g at 12 °C for 15 min. Protein concentrations were determined using the DC Protein Assay Kit (Bio-Rad). For determining total protein content, the cellular extract was separated by 10% or 12% sodium dodecyl sulfate–polyacrylamide gel electrophoresis (SDS-PAGE) and transferred onto a microporous polyvinylidene difluoride (PVDF) membrane (Bio-Rad). After blocking with 5% (w/v) BSA (Sigma-Aldrich) in 1 × TBST (pH 7.4 and 0.1% Tween-20) for 1 h, the membranes were incubated overnight with primary antibodies at 4 °C, followed by horseradish peroxidase-conjugated secondary antibodies for 1 h. All the used antibodies are listed in Table S1 in the supplementary information. The immunoreactive signals were detected using an enhanced chemiluminescence (ECL) detection reagent kit (Thermo Fisher) and a ChemiDoc XRS + Imaging System (Bio-Rad). The band intensity was measured using Image Lab 5.2 software (Bio-Rad).

[3] = test system: A-549 cells; assay: MTT cell viability assay, A-549; conditions: for IC50: Homo sapiens, A549
Protocol: All the synthesized chalcone-derived pyrazoles were evaluated for their antiproliferative activity against three human non-small cell lung cancer cell lines: A-549, H226, and H460, and a nonmalignant human embryonic kidney cell line HEK293. Cisplatin and 5-fluorouracil (5-FU) were used as a reference. […] The results of the studies are expressed as the IC50 concentration that inhibits 50% growth of cells. […] Following treatment with PCH-1, the viability of all the tested cancer cell lines decreased in a concentration-dependent manner.
The cell viability assay was performed for A-549, H226, H460, and HEK293 cells after treatment with the test compounds by using the 3-(4,5-dimethylthiazol-2-yl)-2,5-diphenyltetrazolium bromide (MTT, Sigma-Aldrich) assay. Briefly, cells were seeded onto 96-well culture plates for attachment. After 24 h, triplicate wells were treated with DMSO (1%) and the agents. […] After 2–4 h of incubation, the medium was removed, and the formazan crystals were dissolved in 100 μl of DMSO. The absorption was measured at 450 nm with an ASYS UVM340 microplate reader (Biochrom Ltd.). The 50% inhibitory concentration (IC50) was defined as the concentration that reduced the absorbance of the DMSO-treated wells by 50% of the vehicle. The IC50 values were generated from GraphPad Prism 9 software by plotting the survival curve as a function of dose from 3 independent experiments.

[4] = test system: A-549, H226, and H460 cells; assay: Colony formation assay; conditions: 1, 5, 10 µM for 24 h, then 9 days culture
Protocol: Cells were seeded onto 6-well plates (500 cells/well) and allowed to attach for 24 h in a fresh RPMI medium. Next, the cells were pretreated with DMSO (1%) solution of the examined compound (at the concentrations of 1, 5, and 10 µM) for 24 h. The medium containing compound was then changed, and the cells were cultured for additional 9 days. After incubation, the cells were washed twice with phosphate-buffered saline (PBS), fixed with 100% methanol for 30 min, and stained with 0.5% crystal violet for 15 min. The colonies were photographed and counted by ImageJ software.

[5] = A-549 co-treated with 2.5 ng/ml TGF-β1, IC90, 48 h

IC50 ([3]; 72 h, MTT, read-out: IC50 ± SD, growth inhibition, A-549): 4.32 ± 0.28 µM
IC50 ([3]; A-549, 24 h, read-out: IC50 after 24 h of treatment): 41.3 ± 0.75 µM
IC50 ([3]; A-549, 48 h, read-out: IC50 after 48 h of treatment): 25.6 ± 0.97 µM
Compound: COc1ccc(C2CC(c3cc4c(cc3OC)OCO4)=NN2C(C)=O)cc1 (stereo not shown) [PCH-1, 1-[3-(6-methoxy-2H-1,3-benzodioxol-5-yl)-5-(4-methoxyphenyl)-4,5-dihydro-1H-pyrazol-1-yl]ethan-1-one]
cell cycle arrest [1]: induced cell cycle arrest in the G2/M phase
Bcl-2 protein level ([2]; A-549, IC90): not changed
Bax protein level ([2]; A-549, IC90, 6, 24, 48 h): significant increase
expression of hTERT ([2]; A-549, IC90, 24 and 48 h): significantly decreased
reduction of N-cadherin ([2]; A-549, IC90, 24 h): 45%
reduction of vimentin ([2]; A-549, IC90, 24 h): 43%
reduction of N-cadherin ([2]; A-549, IC90, 48 h): 50%
reduction of vimentin ([2]; A-549, IC90, 48 h): 46%
suppression of β-catenin, TGF-β1 induced ([2]; A-549 co-treated with 2.5 ng/ml TGF-β1, IC90, 24 h): 31%
reduction of N-cadherin, TGF-β1 induced [2, 5]: 66%
suppression of β-catenin, TGF-β1 induced [2, 5]: 66%
superior activity to the reference compound Cisplatin, A-549 ([3]; 72 h IC50 ratio): approximately 6.7 fold
number of colonies [4]: reduced the number of colonies in all the tested cell lines in a dose-dependent manner
